Laboratory results reported in patent publication US20260151518A1, “LEUKOCYTE-SPECIFIC CELL PENETRATING MOLECULES” (Amytrx Therapeutics, Inc., priority 2021, published 2026).
Marks after values point to notes of the source that are not given here.

Assay: Tissue distribution of radioactivity by quantitative whole body autoradiography (QWBA) after single intravenous [3H]-AMTX-100
Assay type: in vivo, rat
Conditions: single intravenous, 5 mg/kg, rat
Description: The formulation was administered directly into a tail vein. The dose volume (2.5 mL/kg) was used to achieve a dose level of 5 mg/kg and radioactive dose levels of 100 μCi/kg (Phase 1) and 500 μCi/kg (Phase 2). The dose formulation was stirred continuously throughout the dosing procedure.
Quantitative Whole Body Autoradiography (QWBA). The frozen carcasses were subjected to QWBA. Sections were presented at up to five different levels of the rat body to include between 30 and 40 tissues (subject to presence of sufficient radioactivity).
The freeze-dried whole body autoradiography sections were exposed to phosphor-storage imaging plates and incubated at ambient temperature in the dark for seven days. Calibrated autoradiographic blood standards containing known amounts of radioactivity (nCi/g) were included in each exposure.
Distribution of radioactivity in tissues and [^3H]-blood standards (prepared and validated at Pharmaron UK Ltd.) was determined and quantified using a Fuji FLA-5100 fluorescent image analyzing system and associated Tina (version 2.09) and SeeScan (version 2.0) software. For each exposure, a standard curve was produced in SeeScan using the data from the autoradiographic blood standards from which tissue concentrations of radioactivity (μg equivalents/g) were determined.
A representative background radioactivity measurement for each exposure plate used was also taken. The number of measurements for each particular tissue was determined by the number of levels it appeared in. Multiple measurements were therefore performed for larger tissues that appeared in more than one level (e.g. liver), with only one measurement obtained for small tissues (e.g. thyroid gland). The limit of accurate quantification was considered to be the lowest [^3H]-blood standard visible.
Three of the carcasses obtained from the eight male Sprague Dawley rats subjected to whole blood collection and analysis after each receiving a single intravenous administration of [^3H]-AMTX-100, were selected for QWBA analysis at each of the following time points: 10 minutes and 2 and 12 hours post-dose.
Each carcass was snap frozen by immersion in a hexane/dry ice mixture immediately after collection and was then stored at approximately −20° C., pending analysis by QWBA.

CSCC[C@@H]1NC(=O)[C@H](CC(C)C)NC(=O)[C@H](CCCCN)NC(=O)[C@H](CCC(N)=O)CC(=O)[C@H](CCCNC(=N)N)NC(=O)[C@H](CCCCN)NC(=O)[C@H](CCCNC(=N)N)NC(=O)[C@H](CCC(N)=O)NC(=O)[C@H](C(C)C)NC(=O)[C@@H](NC(=O)[C@@H]2CCCN2C(=O)[C@H](C)NC(=O)[C@H](CC(C)C)NC(=O)[C@H](CC(C)C)NC(=O)[C@H](C)NC(=O)[C@H](CC(C)C)NC(=O)[C@H](CC(C)C)NC(=O)[C@@H](NC(=O)[C@H](C)NC(=O)[C@@H]2CCCN2C(=O)[C@H](CC(C)C)NC(=O)[C@H](CC(C)C)NC(=O)[C@H](C)NC(=O)[C@@H](NC(=O)[C@H](C)NC(=O)[C@H](C)N)C(C)C)C(C)C)CSSC[C@@H](C(=O)O)NC(=O)[C@@H]2CCCN2C1=O [[^3H]-AMTX-100]
Concentration of radioactivity in Caecum mucosa (2 hr): 0.76 μg equivalents/g
Concentration of radioactivity in Epididymis (2 hr): 0.67 μg equivalents/g
Concentration of radioactivity in Ex-orbital lachrymal gland (2 hr): 0.46 μg equivalents/g
Concentration of radioactivity in Eye: lens (2 hr): BLQ (Below lower limit of accurate quantification (<0.36 μg equivalents/g))
Concentration of radioactivity in Eye: whole (2 hr): BLQ (Below lower limit of accurate quantification (<0.36 μg equivalents/g))
Concentration of radioactivity in Fat: brown (2 hr): BLQ (Below lower limit of accurate quantification (<0.36 μg equivalents/g))
Concentration of radioactivity in Fat: white (2 hr): BLQ (Below lower limit of accurate quantification (<0.36 μg equivalents/g))
Concentration of radioactivity in Forestomach mucosa (2 hr): 0.57 μg equivalents/g
Concentration of radioactivity in Glandular stomach mucosa (2 hr): 0.81 μg equivalents/g
Concentration of radioactivity in Harderian gland (2 hr): 0.37 μg equivalents/g
Concentration of radioactivity in Kidney: cortex (2 hr): 9.59 μg equivalents/g
Concentration of radioactivity in Kidney: medulla (2 hr): 4.47 μg equivalents/g
Concentration of radioactivity in Kidney: whole (2 hr): 7.35 μg equivalents/g
Concentration of radioactivity in Large intestine contents (2 hr): BLQ (Below lower limit of accurate quantification (<0.36 μg equivalents/g))
Concentration of radioactivity in Large intestine mucosa (2 hr): 0.63 μg equivalents/g
Concentration of radioactivity in Liver (2 hr): 31.60 μg equivalents/g
Concentration of radioactivity in Lung (2 hr): 31.90 μg equivalents/g
Concentration of radioactivity in Lymph node (2 hr): 0.83 μg equivalents/g
Concentration of radioactivity in Muscle (2 hr): BLQ (Below lower limit of accurate quantification (<0.36 μg equivalents/g))
Concentration of radioactivity in Myocardium (2 hr): 0.53 μg equivalents/g
Concentration of radioactivity in Pancreas (2 hr): 1.69 μg equivalents/g
Concentration of radioactivity in Pituitary gland (2 hr): 1.58 μg equivalents/g
Concentration of radioactivity in Prostate gland (2 hr): 0.83 μg equivalents/g
Concentration of radioactivity in Salivary gland (2 hr): 0.80 μg equivalents/g
Concentration of radioactivity in Skin (2 hr): 0.39 μg equivalents/g
Concentration of radioactivity in Small intestine contents (2 hr): 1.23 μg equivalents/g
Concentration of radioactivity in Small intestine mucosa (2 hr): 0.89 μg equivalents/g
Concentration of radioactivity in Spinal cord (2 hr): BLQ (Below lower limit of accurate quantification (<0.36 μg equivalents/g))
Concentration of radioactivity in Spleen: red pulp (2 hr): 11.90 μg equivalents/g
Concentration of radioactivity in Spleen: white pulp (2 hr): 2.92 μg equivalents/g
Concentration of radioactivity in Spleen: whole (2 hr): 41.80 μg equivalents/g
Concentration of radioactivity in Stomach contents (2 hr): BLQ (Below lower limit of accurate quantification (<0.36 μg equivalents/g))
Concentration of radioactivity in Testis (2 hr): 0.37 μg equivalents/g
Concentration of radioactivity in Thymus (2 hr): 0.68 μg equivalents/g
Concentration of radioactivity in Thyroid gland (2 hr): 1.29 μg equivalents/g
Concentration of radioactivity in Urinary bladder wall (2 hr): 1.22 μg equivalents/g
Concentration of radioactivity in Urinary bladder contents (2 hr, above upper limit of accurate quantification (>153 μg equivalents/g)): 219.00* μg equivalents/g
Concentration of radioactivity in Adrenal gland (12 hr): 0.44 μg equivalents/g
Concentration of radioactivity in Blood: residual cardiac (12 hr): BLQ (Below lower limit of accurate quantification (<0.36 μg equivalents/g))
Concentration of radioactivity in Bone marror (12 hr): 2.18 μg equivalents/g
Concentration of radioactivity in Caecum contents (12 hr): BLQ (Below lower limit of accurate quantification (<0.36 μg equivalents/g))
Concentration of radioactivity in Kidney: cortex (12 hr): 0.61 μg equivalents/g
Concentration of radioactivity in Kidney: medulla (12 hr): 0.45 μg equivalents/g
Concentration of radioactivity in Kidney: whole (12 hr): 0.54 μg equivalents/g
Concentration of radioactivity in Large intestine contents (12 hr): 0.36 μg equivalents/g
Concentration of radioactivity in Large intestine mucosa (12 hr): BLQ (Below lower limit of accurate quantification (<0.36 μg equivalents/g))
Concentration of radioactivity in Liver (12 hr): 8.77 μg equivalents/g
Concentration of radioactivity in Lung (12 hr): 30.10 μg equivalents/g
Concentration of radioactivity in Muscle (12 hr): BLQ (Below lower limit of accurate quantification (<0.36 μg equivalents/g))
Concentration of radioactivity in Pancreas (12 hr): BLQ (Below lower limit of accurate quantification (<0.36 μg equivalents/g))
Concentration of radioactivity in Small intestine contents (12 hr): 0.47 μg equivalents/g
Concentration of radioactivity in Small intestine mucosa (12 hr): BLQ (Below lower limit of accurate quantification (<0.36 μg equivalents/g))
Concentration of radioactivity in Spleen: red pulp (12 hr): 6.89 μg equivalents/g
Concentration of radioactivity in Spleen: white pulp (12 hr): 0.89 μg equivalents/g
Concentration of radioactivity in Spleen: whole (12 hr): 11.90 μg equivalents/g
Concentration of radioactivity in Testis (12 hr): BLQ (Below lower limit of accurate quantification (<0.36 μg equivalents/g))
Concentration of radioactivity in Urinary bladder contents (12 hr): 11.90 μg equivalents/g
Concentration of radioactivity in Urinary bladder wall (12 hr): BLQ (Below lower limit of accurate quantification (<0.36 μg equivalents/g))
